Data on 16 compounds can be found in patent publication US8026073B2, “Screening G protein-coupled receptor antagonists for methods of treating Alzheimer's disease” (Shanghai Institutes for Biological Sciences, Chinese …, priority 2005, dated 2011).

Entries after “also recorded” stand apart in the source; their conditions may differ.

Series [1] deals with APPswe/PS1ΔE9 mice. Put plainly: Morris water maze, APPswe/PS1ΔE9 mice, Animal Model Experiment 1. The settings on record: for percent time spent in the platform quadrant, probe trial: 24 h after the final hidden platform training; for percent time spent in the platform quadrant, probe trial / escape latency, hidden platform training: versus control transgenic mice; for escape latency, visible platform training / escape latency, hidden platform training: oral administration from 4 months of age; for escape latency, visible platform training: transgenic mice; for swim speed as cause of the observed effects: FIG. 15d, 16d, 17d.

Series [2] has as its system γ-secretase. Put plainly: γ-Secretase fluorogenic substrate assay, HEK293 cells treated with transferrin. The series is classed as cell-based. The settings on record: transferrin-induced endocytosis. Here is the method:
However, it is till not clear whether clathrin-mediated endocytosis by itself is […] to induce the enhancement of γ-secretase activity. To answer this question, HEK293 cells were treated with transferrin, which can induce constitutive clathrin-dependent endocytosis of transferrin receptor.

In series [3] the target is T1, β2AR (Homo sapiens, UniProt P07550).
T1 construct: expressed in transfected cells; host or cells: HEK293
T1 sequence (P07550 whole entry): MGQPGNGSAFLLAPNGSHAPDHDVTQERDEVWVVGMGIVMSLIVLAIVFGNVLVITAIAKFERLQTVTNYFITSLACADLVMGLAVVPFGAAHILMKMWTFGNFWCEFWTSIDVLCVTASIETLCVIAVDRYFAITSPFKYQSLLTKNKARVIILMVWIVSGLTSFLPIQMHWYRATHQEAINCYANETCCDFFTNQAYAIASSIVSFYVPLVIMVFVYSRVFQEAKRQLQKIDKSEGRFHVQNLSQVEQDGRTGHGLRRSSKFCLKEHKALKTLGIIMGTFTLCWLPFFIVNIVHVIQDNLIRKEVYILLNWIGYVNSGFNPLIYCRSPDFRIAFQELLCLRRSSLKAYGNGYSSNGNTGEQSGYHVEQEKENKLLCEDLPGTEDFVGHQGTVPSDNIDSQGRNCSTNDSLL
The series can be described thus: Secreted Aβ ELISA in HEK293 cells co-expressing β2AR and APPswe. The conditions noted are these: 10 μM Iso 1 h with 10 μM Pro, or after 6-h pre-treatment with 1 μM L685,458. In kind it is cell-based.

The conditions of series [4]: stated as a property, no test described; cited from earlier work.
In series [5] the test system is APPswe/PS1ΔE9 double-transgenic mice. The series can be described thus: Morris water maze, APPswe/PS1ΔE9 mice, Animal Model Experiment 2. The series is classed as in vivo, mouse. The conditions noted are these: for escape latency, visible platform / escape latency, hidden platform: oral daily for 30 days, 2 mg/kg clenbuterol or 1 mg/kg ICI 118,551; for escape latency, hidden platform: versus Sal mice. Here is the method:
In further animal experiments, four-month old APPswe/PS1ΔE9 double-transgenic mice were orally administered with saline (Sal), 2 mg/kg clenbuterol (Cle, a β2AR-selective agonist) or 1 mg/kg ICI 118,551 (ICI, a β2AR-selective antagonist) daily for 30 days.
The water maze was a circular 1.2 m pool filled with water at 24-25° C. and made opaque by the addition of milk powder. The pool was placed amid fixed spatial cues consisting of boldly patterned curtains and shelves containing distinct objects. […] Mice first underwent visible platform training for 2 consecutive days (eight trials per day), swimming to a raised circular platform (10 cm of diameter) marked with a pole. Visible platform days were split into two training blocks of four trials for statistical analysis. During visible platform training, both the platform location (NE, SE, SW, or NW) and start position (N, […], S, or W) were varied pseudo-randomly in each trial.
Hidden platform raining was conducted over 6 consecutive days (four trials per day), wherein mice were allowed to search for a platform submerged 1.5 cm beneath the surface of the water. Mice failing to reach the platform within 60 sec were led to the platform. During hidden-platform trials, the location of the platform remained constant, and mice entered the pool in one of the four pseudo-randomly selected locations (N, E, S, or W). After each hidden platform trial, mice remained on the platform for 30 sec and were removed from the platform and returned to their home cage.
Twenty-four hours after the final hidden platform training, a probe trial was conducted in which the platform was removed from the pool and mice were allowed to search for the platform for 60 sec. All trials were monitored by a camera mounted directly above the pool and were recorded and analyzed using a computerized tracking system.

Series [6] deals with APPswe/PS1ΔE9 mice. The series can be described thus: Cerebral amyloid plaque formation in APPswe/PS1ΔE9 mice after chronic administration. The conditions noted are these: daily for 30 days, 3 nM Iso i.c.v., 2 mg/kg Cle oral, 1 mg/kg ICI 118,551 oral.
Series [7] deals with γ-secretase. The series can be described thus: γ-Secretase activity in rat hippocampus after acute injection (fluorogenic substrate assay). The conditions noted are these: rats, 2 μg norepinephrine i.c.v. or 0.5 mg/kg clenbuterol i.p.
Series [8] relates to Aβ40 and Aβ42. The series can be described thus: Aβ levels in rat hippocampus after acute injection (rat Aβ ELISA). The settings on record: rats, 2 μg norepinephrine i.c.v. or 0.5 mg/kg clenbuterol i.p.
For series [9], the system named is γ-secretase. The series can be described thus: γ-Secretase fluorogenic substrate assay, C6 glioma membrane fractions. In kind it is cell-based.
Series [10] concerns γ-secretase. The series can be described thus: γ-Secretase fluorogenic substrate assay, SH-SY5Y neuroblastoma. In kind it is cell-based. Here is the method: The enhancement of γ-secretase activity upon activation of receptors is not limited to β-AR. Similar results were also observed when endogenous DOR in SH-SY5Y neuroblastoma (FIG. 7a) or in primary hippocampal cultures (FIG. 7b) were stimulated.
Again, the involvement of LEL in the enhancement of the γ-secretase activity is not limited to β-AR. […] The experiment shown in FIG. 12 was performed with SH-SY5Y neuroblastoma. […] The fractions were subjected to […] (Aβ) assay and fluorogenic substrate assay.

The test system of series [11] is γ-secretase. Put plainly: γ-Secretase fluorogenic substrate assay, acute hippocampal slices. The conditions noted are these: 1 μM DADLE, 30 minutes. In kind it is cell-based, rat.
Series [12] deals with δ-opioid receptor (DOR) (Homo sapiens, UniProt P41143). The settings on record: C99-transfected HEK293 cells; DADLE plus NALT.
Sequence of δ-opioid receptor (DOR) (P41143 whole entry): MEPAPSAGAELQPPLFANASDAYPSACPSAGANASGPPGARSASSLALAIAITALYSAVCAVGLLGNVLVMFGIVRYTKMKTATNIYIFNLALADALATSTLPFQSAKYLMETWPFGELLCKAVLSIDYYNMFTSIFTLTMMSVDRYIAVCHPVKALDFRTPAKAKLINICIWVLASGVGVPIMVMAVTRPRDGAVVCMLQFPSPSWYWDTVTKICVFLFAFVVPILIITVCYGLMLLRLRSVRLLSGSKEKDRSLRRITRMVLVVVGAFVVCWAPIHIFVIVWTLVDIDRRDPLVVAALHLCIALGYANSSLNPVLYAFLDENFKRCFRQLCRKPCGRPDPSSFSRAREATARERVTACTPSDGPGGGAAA
Series [13] has as its system γ-secretase. Put plainly: Immunofluorescence microscopy of acute hippocampal slices, localization of γ-secretase in LEL. The settings on record: Iso treatment.
Series [14] relates to endogenous β-ARs. The series can be described thus: Secreted Aβ ELISA in primary hippocampal cultures expressing C99, β-AR stimulation. The series is classed as cell-based, rat. The conditions noted are these: 10 μM Iso, 1 h.
Series [15] relates to γ-secretase. The conditions noted are these: wild-type versus presenilin-deficient MEFs; 10 μM Iso, 30 min.

On to `COCCc1ccc(OCC(O)CNC(C)C)cc1` (centres unmarked) [Metoprolol], for which, in [1], the “percent time spent in the platform quadrant, probe trial” value (“percent time spent” below) is “showed no effect”; the “escape latency, visible platform training” value was “no drug effect was observed”; the “escape latency, hidden platform training” value is given as “showed no effect”. Besides, in series [1] (listed as metoprolol), the “percent time spent” value is recorded as “had no effect”.
In the case of transferrin, the γ-secretase activity result in series [2] is listed as “does not lead to enhanced γ-secretase activity; also recorded: failed to enhance γ-secretase activity”.
For the compound `CC(C)C[C@H](NC(=O)[C@H](Cc1ccccc1)C[C@@H](O)[C@H](Cc1ccccc1)NC(=O)OC(C)(C)C)C(=O)N[C@@H](Cc1ccccc1)C(N)=O` [L685,458], in series [3], the “effect on Iso-induced increase in secreted Aβ” value is given as “abolished the increased production of the secreted Aβ”.
Take `COc1ccc(OC)c(C(O)C(C)NC(C)(C)C)c1` (centres unmarked) [Butoxamine]: in [4], the “crossing of the blood-brain barrier (BBB)” value (“crossing” below) was “can cross the BBB”. In addition, in series [1], the “swim speed as cause of the observed effects” value (“swim speed as cause” below) is “not due to difference in swim speeds”; the “escape latency, visible platform training” value is “no drug effect was observed”; the “escape latency, hidden platform training” value is reported as “significantly ameliorated cognitive impairment”.
With `CC(C)(C)NCC(O)c1cc(Cl)c(N)c(Cl)c1` (centres unmarked) [clenbuterol], in series [5], the “escape latency, visible platform” value is given as “small, but statistically insignificant, effects of drug treatments; also recorded: No significant effect” and the “escape latency, hidden platform” value is recorded as “seemed to have no effect”. The cerebral amyloid plaques result in series [6] was “accelerated amyloid plaque formation”. For the same compound, in [6] (listed as Cle), the cerebral amyloid plaques entry is listed as “increased cerebral amyloid plaques”. Also, the “γ-secretase activity in hippocampus” value in series [7] is “significantly enhanced; also recorded: enhanced γ-secretase activity”. In addition, in series [8], the “Aβ levels (Aβ40 and Aβ42) in hippocampus” value was “significantly enhanced; also recorded: increased secreted Aβ 40 and Aβ 42 levels”.
As for cholera toxin, the “γ-secretase activity, compound alone” value in series [9] is “did not result in enhanced γ-secretase activity”.
Consider `Cc1ccc(OCC(O)C(C)NC(C)C)c2c1CCC2` (centres unmarked) [ICI 118,551], for which the “percentage time spent on the platform, probe trial” value in series [5] (24-h after final hidden platform training, 1 mg/kg ICI 118,551 oral daily for 30 days, listed as ICI) is reported as “spent greater proportion of time in the platform; also recorded: spent greater proportion of time in the target quadrant”. Also, in series [5], the “escape latency, visible platform” value is listed as “small, but statistically insignificant, effects of drug treatments; also recorded: No significant effect” and the “escape latency, hidden platform” value is “displayed a faster learning curve than the Sal mice; also recorded: displayed a faster learning curve than the Sal ones”. The “crossing” value in [4] is recorded as “can cross the BBB”. For the same compound, the cerebral amyloid plaques entry in series [6] is recorded as “significantly reduced the amounts of amyloid plaques; also recorded: effective in suppressing the formation of β-amyloid plaques”. In series [1], the “swim speed as cause” value is given as “did not result from changes in swim speeds”; the “escape latency, visible platform training” value was “no drug effect was observed”; the “escape latency, hidden platform training” value is listed as “significantly ameliorated cognitive impairment”.
For the compound `CC(C)C[C@@H](NC(=O)[C@H](Cc1ccccc1)NC(=O)CNC(=O)[C@@H](C)NC(=O)[C@@H](N)Cc1ccc(O)cc1)C(=O)O` [DADLE, [D-Ala^2, D-Leu^5]-enkephalin], the γ-secretase activity entry in series [10] (SH-SY5Y neuroblastoma, 1 μM DADLE, 30 minutes) is “enhanced γ-secretase activity”; in series [11] it was “enhanced γ-secretase activity”. In addition, the “γ-secretase activity in the AP positive fraction” value in series [10] (SH-SY5Y, 1 μM DADLE 30 minutes, then fractionated) is listed as “enhanced the γ-secretase activity in the AP positive fraction”.
As to concanavalin A [Con A], the “effect on Iso-induced enhancement of γ-secretase activity” value in series [9] (C6 glioma, 10 μM Iso 30 min after pretreatment with 0.25 mg/ml Con A or 0.5 M Suc) is “abolished”.
As for `CC(C)NCC(O)COc1cccc2ccccc12` (centres unmarked) [propranolol], in series [1], the “percent time spent” value was “partially ameliorated the impairment of spatial memory”; the “swim speed as cause” value is recorded as “did not result from difference in swim speeds”; the “escape latency, visible platform training” value is on record as “No genotype or drug effect”; the “escape latency, hidden platform training” value is “partially ameliorate the impairment”.
Take `CC(C)(C)NCC(O)COc1cccc2c1CC(O)C(O)C2` (centres unmarked) [nadolol]: in [1], the “percent time spent” value is on record as “had no effect”; the “escape latency, visible platform training” value is “No genotype or drug effect”; the “escape latency, hidden platform training” value is listed as “showed no effect”. In series [1] (listed as Nadolol), the “escape latency, hidden platform training” value was “showed no effect on the impairment”.
As for `Oc1ccc2c3c1O[C@H]1c4[nH]c5ccccc5c4C[C@@]4(O)[C@@H](C2)N(CC2CC2)CC[C@]314` [naltrindole], the “crossing” value in series [4] is “can cross the BBB”. In series [12], the “effect on DADLE-induced Aβ production” value is listed as “abolished the effect of DADLE”. In series [1], the “escape latency, visible platform training” value is listed as “no drug effect was observed” and the “escape latency, hidden platform training” value was “ameliorated cognitive impairment”.
With pertussis toxin [PTX], the “effect on DADLE-induced enhancement of γ-secretase activity” value in series [10] (SH-SY5Y, 1 μM DADLE after 12 hours pre-treatment with 200 ng/ml PTX) is “not abolished; also recorded: did not alter the enhancement of γ-secretase activity”.
As to `NC[C@H](O)c1ccc(O)c(O)c1` [norepinephrine], the “γ-secretase activity in hippocampus” value in [7] is “significantly enhanced; also recorded: enhanced γ-secretase activity”. Moreover, the “Aβ levels (Aβ40 and Aβ42) in hippocampus” value in series [8] is “significantly enhanced; also recorded: increased secreted Aβ 40 and Aβ 42 levels”.
With `CC(C)NCC(O)c1ccc(O)c(O)c1` (centres unmarked) [Iso, isoproterenol], the “co-localization of PS1 or nicastrin with LAMP-1” value in [13] is given as “increased”. Also, the “secreted Aβ” value in [14] is “increases Aβ production”. Also, the “γ-secretase activity, compound alone” value in series [9] is “γ-secretase activity was enhanced”. For the same compound, the cerebral amyloid plaques entry in series [6] is on record as “increased cerebral amyloid plaques; also recorded: accelerated amyloid plaque formation”. Also, the “Iso-induced enhancement of γ-secretase activity” value in series [15] was “Presenilin-deficiency abolished the Iso-induced enhancement”.
For `CC(C)NCC(O)COc1ccc(CCOCC2CC2)cc1` (centres unmarked) [Betaxolol], the “crossing” value in [4] is on record as “can cross the BBB”. Moreover, in series [1], the “percent time spent” value is listed as “showed less significant effect; also recorded: showed no effect”; the “escape latency, visible platform training” value is “no drug effect was observed”; the “escape latency, hidden platform training” value is reported as “showed some effect; also recorded: showed some extent of amelioration, but the effect was not statistically significant”.
